Measured values reported in US11401555B2, “Genetic polymorphisms associated with stroke, methods of detection and uses thereof” (CELERA CORPORATION, priority 2008, dated 2022).

Experiment: Stroke statin response (SSR) in the PROSPER pravastatin trial: pravastatin-treated versus placebo-treated, by SNP genotype
Assay type: in vivo, human
Excerpt: (hCV26505812) for association with SSR in CARE (Table 37) and PROSPER (Table 38), including both unadjusted and adjusted analyses (adjusted for factors such as age, gender, smoking status, hypertension, diabetes, BMI, and LDL and HDL levels). Table 37 provides results in CARE, and Table 38 provides results in PROSPER (whether each analysis is unadjusted or adjusted is indicated in the “adjust” column in Table 37, or by “unadj” and “adj” column labels in Tables 38). With respect to Tables 22-32 and 37-38, the columns labeled “Genotype” (in Tables 22-28 and 37), “Geno_Placebo” (in Tables 29-30 and 38), and “Geno_Resp” (in Tables 31-32 and 38) indicate the genotype which the given stroke risk or SSR results correspond to. […] In Tables 29-32 and 38, the columns labeled “LOWER_PLACEBO” and “UPPER_PLACEBO” (Tables 29-30 and 38), and “LOWER_RESP” and “UPPER_RESP” (Tables 31-32 and 38), refer to the lower and upper 95% confidence intervals for the hazard ratios. See Example Six below for further information relating to Tables 22-32 and 37-38. […] As used herein, the term “benefit” (with respect to a preventive or therapeutic drug treatment) is defined as achieving a reduced risk for a disease that the drug is intended to treat or prevent (e.g., stroke) by administrating the drug treatment, compared with the risk for the disease in the absence of receiving the drug treatment (or receiving a placebo in lieu of the drug treatment) for the same genotype. The term “benefit” may be used herein interchangeably with terms such as “respond positively” or “positively respond”. For stroke risk and statin response associations based on samples from the CARE and PROSPER trials described herein, stroke risk is assessed by comparing the risk of stroke for a given genotype with the risk of stroke for a reference genotype either in the placebo arm of the trial or in the whole study population of the trial, and statin response is assessed by comparing the risk of stroke in the pravastatin arm of the trial with the risk of stroke in the placebo arm of the trial for the same genotype. […] Example Five above describes the analysis of these 61 SNPs plus 17 additional SNPs in the German West Study. […] In PROSPER, SNPs were analyzed for association with stroke risk or SSR, in the whole study cohort (strata: “ALL”), or in the subgroup with a history of CVD (strata: “hist”) or without a CVD history (strata: “no hist”). […] Also in the CARE and PROSPER trials, the chromosome 9p21 SNP […] (hCV26505812) was analyzed further for association with SSR, including unadjusted and adjusted analysis. Adjusted analysis in CARE (Table 37) was adjusted for age, gender, smoking status, hypertension, diabetes, body mass index (BMI), and LDL and HDL levels, and adjusted analysis in PROSPER (Table 38) was adjusted for country, gender, age, LDL, HDL, smoking status (current vs. past or never), history of hypertension, and diabetes. Table 37 provides results in CARE, and Table 38 provides results in PROSPER (whether each analysis is unadjusted or adjusted is indicated in the “adjust” column in Table 37, or by “unadj” and “adj” column labels in Tables 38). All the p-values (including Pint values) provided in Tables 37-38 are two-sided p-values.

[1] = hCV2169762 rs1804689 HPS1, GENO_RESP GG, MODE GEN, STRATA no hist
[2] = hCV2169762 rs1804689 HPS1, GENO_RESP GT, MODE GEN, STRATA hist
[3] = hCV2169762 rs1804689 HPS1, GENO_RESP GT, MODE GEN, STRATA no hist
[4] = hCV2169762 rs1804689 HPS1, GENO_RESP TT, MODE GEN, STRATA no hist
[5] = hCV2442143 rs12544854 ASAH1, GENO_RESP CC + CT, MODE REC, STRATA no hist
[6] = hCV2442143 rs12544854 ASAH1, GENO_RESP TT + CT, MODE DOM, STRATA hist
[7] = hCV26505812 rs10757274 C9p21, GENO_RESP AA, MODE GEN, STRATA ALL
[8] = hCV26505812 rs10757274 C9p21, GENO_RESP AA, MODE GEN, STRATA no hist
[9] = hCV26505812 rs10757274 C9p21, GENO_RESP AG, MODE GEN, STRATA ALL
[10] = hCV26505812 rs10757274 C9p21, GENO_RESP AG, MODE GEN, STRATA no hist
[11] = hCV26505812 rs10757274 C9p21, GENO_RESP GG + AG, MODE DOM, STRATA ALL
[12] = hCV26505812 rs10757274 C9p21, GENO_RESP GG + AG, MODE DOM, STRATA no hist
[13] = hCV26505812 rs10757274 C9p21, GENO_RESP GG, MODE GEN, STRATA ALL
[14] = hCV26505812 rs10757274 C9p21, GENO_RESP GG, MODE GEN, STRATA no hist
[15] = hCV27511436 rs3750145 FZD1, GENO_RESP CC + CT, MODE DOM, STRATA no hist
[16] = hCV27511436 rs3750145 FZD1, GENO_RESP CC, MODE GEN, STRATA no hist
[17] = hCV27511436 rs3750145 FZD1, GENO_RESP CT, MODE GEN, STRATA no hist
[18] = hCV27511436 rs3750145 FZD1, GENO_RESP TT, MODE GEN, STRATA no hist
[19] = hCV27830265 rs12762303 ALOX5, GENO_RESP GG + AG, MODE DOM, STRATA no hist
[20] = hCV29539757 rs10110659 KCNQ3, GENO_RESP AA, MODE GEN, STRATA hist
[21] = hCV29539757 rs10110659 KCNQ3, GENO_RESP AC, MODE GEN, STRATA hist
[22] = hCV29539757 rs10110659 KCNQ3, GENO_RESP CC, MODE GEN, STRATA hist

CC[C@H](C)C(=O)O[C@H]1C[C@H](O)C=C2C=C[C@H](C)[C@H](CC[C@@H](O)C[C@@H](O)CC(=O)O)[C@H]21 [pravastatin]
HR_RESP (hazard ratio, pravastatin-treated versus placebo-treated) (hCV2169762 rs1804689 HPS1, GENO_RESP GG, MODE GEN, STRATA hist): 1.104
EVENTS_RESP [1]: 30
HR_RESP (hazard ratio, pravastatin-treated versus placebo-treated) [1]: 0.659
EVENTS_RESP [2]: 47
HR_RESP (hazard ratio, pravastatin-treated versus placebo-treated) [2]: 0.9425
EVENTS_RESP [3]: 47
HR_RESP (hazard ratio, pravastatin-treated versus placebo-treated) [3]: 1.268
EVENTS_RESP (hCV2169762 rs1804689 HPS1, GENO_RESP TT + GT, MODE DOM, STRATA no hist): 57
HR_RESP (hazard ratio, pravastatin-treated versus placebo-treated) (hCV2169762 rs1804689 HPS1, GENO_RESP TT, MODE GEN, STRATA hist): 0.3365
EVENTS_RESP [4]: 10
HR_RESP (hazard ratio, pravastatin-treated versus placebo-treated) [4]: 1.275
EVENTS_RESP [5]: 72
HR_RESP (hazard ratio, pravastatin-treated versus placebo-treated) [5]: 1.087
EVENTS_RESP [6]: 88
HR_RESP (hazard ratio, pravastatin-treated versus placebo-treated) [6]: 1.043
EVENTS_RESP [7]: 56
HR_RESP (hazard ratio, pravastatin-treated versus placebo-treated) [7]: 1.33
EVENTS_RESP [8]: 28
HR_RESP (hazard ratio, pravastatin-treated versus placebo-treated) [8]: 1.57
EVENTS_RESP [9]: 94
HR_RESP (hazard ratio, pravastatin-treated versus placebo-treated) [9]: 0.7769
EVENTS_RESP [10]: 35
HR_RESP (hazard ratio, pravastatin-treated versus placebo-treated) [10]: 0.6977
EVENTS_RESP [11]: 145
HR_RESP (hazard ratio, pravastatin-treated versus placebo-treated) [11]: 0.8638
EVENTS_RESP [12]: 59
HR_RESP (hazard ratio, pravastatin-treated versus placebo-treated) [12]: 0.8132
EVENTS_RESP [13]: 51
HR_RESP (hazard ratio, pravastatin-treated versus placebo-treated) [13]: 1.082
EVENTS_RESP [14]: 24
HR_RESP (hazard ratio, pravastatin-treated versus placebo-treated) [14]: 1.068
EVENTS_RESP [15]: 27
HR_RESP (hazard ratio, pravastatin-treated versus placebo-treated) [15]: 1.388
EVENTS_RESP [16]: 1
HR_RESP (hazard ratio, pravastatin-treated versus placebo-treated) [16]: 0.3492
EVENTS_RESP [17]: 26
HR_RESP (hazard ratio, pravastatin-treated versus placebo-treated) [17]: 1.575
EVENTS_RESP [18]: 60
HR_RESP (hazard ratio, pravastatin-treated versus placebo-treated) [18]: 0.8524
EVENTS_RESP [19]: 25
HR_RESP (hazard ratio, pravastatin-treated versus placebo-treated) [19]: 1.479
EVENTS_RESP [20]: 7
HR_RESP (hazard ratio, pravastatin-treated versus placebo-treated) [20]: 0.4115
EVENTS_RESP [21]: 44
HR_RESP (hazard ratio, pravastatin-treated versus placebo-treated) [21]: 0.9946
EVENTS_RESP (hCV29539757 rs10110659 KCNQ3, GENO_RESP CC + AC, MODE REC, STRATA hist): 106
EVENTS_RESP [22]: 62
HR_RESP (hazard ratio, pravastatin-treated versus placebo-treated) [22]: 1.016
